Assay results reported in patent US12419305B2, “Antimicrobial compositions” (Firmenich SA, priority 2018, dated 2025).

How the values were obtained:
[1] = tested on: Pseudomonas aeruginosa ATCC 15442; assay: BCT test (bacterial contact time), 60 s, log reduction / effect fraction; CI by Compusyn; format: cell-based; conditions: Pseudomonas aeruginosa, ATCC15442, 1 min, BCT 60 s, in 25% EtOH
Experimental: (§1) E. coli, S. aureus, P. aeruginosa, and S. enterica: Separate suspensions of the E. coli ATCC 10536 strain, S. aureus ATCC 6538 strain, Pseudomonas aeruginosa ATCC 15442 strain, and the Salmonella enterica ATCC 10708 strain were prepared as follows: Stock cultures (stored at −80° C.) were thawed and sub-cultured onto Tryptic Soy Agar (TSA) agar plate media, and incubated at 37° C. for 24 h to obtain single colonies. Single colonies of the primary cultures were streaked onto TSA plates and incubated at 37° for 24 h to generate secondary cultures. Single colonies of secondary cultures picked and used to inoculate into 50 mL of TSB broth. The inoculated TSB broth was incubated at 37° C. at 180 rpm for 18 h. Aliquots (0.5 ml) of the 18 h culture were inoculated into 50 ml of fresh TSB broth, and incubated at 37° C. at 180 rpm for 2-3 hours. When the OD600 nm value of the broth reached 1-2, cells were harvested by centrifugation at 5000 rpm for 10 min, and then resuspended in fresh TSB broth at a concentration of 1-5×10^8 CFU/mL. These suspensions were used as the bacterial suspensions for the BCT test.
(§2) BCT Test: Test compositions at a range of concentrations (either combinations of more than one perfume ingredient, and comparative compositions comprising the single perfume ingredients) were prepared in ethanol. Five replicates of each test composition were added into 96-well microtiter plates (120 μl per well), with row B containing control compositions containing the ethanol solution alone. 120 μl of bacterial cell suspensions at a concentration of approximately 1×10^8 bacteria per mL (as prepared above) were added to each well of the microtiter plate. The bacterial suspensions were incubated with the test solutions for 45, 60, or 120 seconds. Following the incubation of the bacterial suspensions with the test solutions, serial dilutions of the bacterial suspensions were generated (three serial 1:10 dilutions, followed by 17 serial 1:2 dilutions), in multiwell microtiter plates.
(§3) Each plate was sealed and incubated at 37° C. under agitation (180 rpm). After incubation, the turbidity of the wells (OD600 nm) was determined using a Tecan microplate reader. Turbid wells were regarded as positive growth, due to the presence of viable cells. The total number of viable cells (log CFU) for each sample was calculated. And the log reduction for each test composition at the final concentration (dose) was calculated against the control sample of the ethanol solution.
(§4) Determination of Synergy via the Combination Index (CI): The CI was calculated using Compusyn software (ComboSyn, Inc., as created by Dr. Dorothy Chou in 2005), according to the manufacturer's instructions. The concentration of each test composition (combinations of more than one perfume ingredient, and comparative compositions comprising the single perfume ingredients used to generate the combination) and their corresponding effect fraction was entered, and the corresponding CI calculated.
(§5) When the calculated CI values were less than 0.9, the combination of perfume ingredients was regarded as having synergistic effect. When the calculated CI was between 1.0 a 0.9, the combination of perfume ingredients was regarded as having an additive effect. When the calculated CI was greater than 1.0, the combination of perfume ingredients was regarded as having an antagonistic effect.

[2] = tested on: Salmonella enterica ATCC 10708; assay: as above; format: cell-based; conditions: Salmonella enterica, ATCC10708, 1 min, BCT 60 s, in 25% EtOH
Experimental: as §1, §2, §3, §4, §5

S. aureus ATCC 6538 = assay: as above; format: cell-based, Staphylococcus aureus; conditions: Staphylococcus aureus, ATCC6538, 1 min, 60 s, in 25% EtOH
Experimental: as §1, §2, §3, §4, §5

S. haemolyticus 114126 = assay: BCT test (bacterial contact time), 120 s, log reduction / effect fraction; CI by Compusyn; format: cell-based; conditions: Staphylococcus haemolyticus, 114126, 2 min, contact 120 s, 25% EtOH
Experimental: S. haemolyticus: Suspensions of the S. haemolyticus 114126 strain, isolated from skin, were prepared as follows: Stock cultures (stored at −80° C.) were thawed and sub-cultured onto TSA-TW80 agar plate media, and incubated at 37° C. for 24 h to obtain single colonies. Single colonies of the primary cultures were streaked onto fresh TSA-TW80 plates and incubated at 37° C. for 24 h to prepare secondary cultures. Single colonies of secondary cultures were picked and used to inoculate 50 mL of BHI-TW80 broth. The inoculated broth was incubated at 37° C. at 180 rpm for 18 h. Aliquots (0.5 ml) of the 18 h culture were inoculated into 50 ml of fresh BHI-TW80 broth, and incubated at 37° C. at 180 rpm for approximately 3 hours. When the OD 600 nm value of the broth reached 1-2, cells were harvested by centrifugation at 5000 rpm for 10 min, and then resuspended in fresh BHI-TW80 broth at a concentration of 1-5×10^8 CFU/mL. This suspension was used as the bacterial suspension for the BCT test.
as §2, §3, §4, §5

C. xerosis ATCC 373 = assay: as above; format: cell-based; conditions: Corynebacterium xerosis, ATCC373, 2 min, contact 120 s, 25% EtOH
Experimental: C. xerosis: Suspensions of the C. xerosis ATCC 373 strain were prepared as follows: Stock cultures (stored at −80° C.) were thawed and subcultured onto Tryptic Soy Agar media with Tween 80 (TSA-TW80), and incubated at 37° C. for 48 h. The primary cultures were subcultured onto TSA-TW80 again, to prepare the secondary cultures. Single colonies of the secondary cultures were selected and used to inoculate 30 ml brain heart infusion broth with Tween 80 (BHI-TW80). The inoculated broth was incubated at 37° C. at 180 rpm for 24 h. Aliquots (1 ml) of the 24 h culture were inoculated into 30 ml of fresh BHI-TW80 broth media, and incubated at 37° C. at 180 rpm for 48 h. Aliquots (2-3 ml) of the 48 h culture were inoculated into four 50 ml of fresh BHI-TW80 broth media, and incubated at 37° C. 180 rpm for 4-6 hrs. When the OD 600 nm reached the target value of 1.6, cells were harvested by centrifugation at 5000 rpm for 10 min, and then resuspended in the same fresh BHI-TW80 at a concentration of 10^9 to 10^10 cfu/mL. This suspension was used as the bacterial suspension for the BCT test.
as §2, §3, §4, §5

## CCCCCCC1CCC(=O)O1 (stereo not shown) [Decal]
[1]; Dose 0.05 % w/v
  log reduction at 0.05 % strength: 1.3
[1]; Dose 0.055 % w/v
  log reduction at 0.055 % strength: 2.7
[1]; Dose 0.06 % w/v
  log reduction at 0.06 % strength: 2.8
[1]; Dose 0.065 % w/v
  log reduction at 0.065 % strength: 4.7
[1]; Dose 0.07 % w/v
  log reduction at 0.07 % strength: 5.2
[2]; Dose 0.04 % w/v
  log reduction at 0.04 % strength: 0.3
[2]; Dose 0.05 % w/v, read-out: Log reduction
  log reduction at 0.05 % strength: 0.7
[2]; Dose 0.06 % w/v
  log reduction at 0.06 % strength: 1.3
[2]; Dose 0.07 % w/v
  log reduction at 0.07 % strength: 2.2
[2]; Dose 0.080 % w/v
  log reduction at 0.08 % strength: 5.8
S. aureus ATCC 6538; dose 0.080 % w/v
  log reduction at 0.08 % strength: 2.4
S. aureus ATCC 6538; dose 0.100 % w/v
  log reduction at 0.1 % strength: 5
S. aureus ATCC 6538; dose 0.120 % w/v
  log reduction at 0.12 % strength: 6.6
S. aureus ATCC 6538; dose 0.160 % w/v
  log reduction at 0.16 % strength: 7.2
S. aureus ATCC 6538; dose 0.200 % w/v, read-out: Log reduction
  log reduction at 0.2 % strength: 7
S. haemolyticus 114126; dose 0.1% w/v
  log reduction at 0.1 % strength: 0.5
S. haemolyticus 114126; dose 0.125% w/v
  log reduction at 0.125 % strength: 0.7
S. haemolyticus 114126; dose 0.15% w/v
  log reduction at 0.15 % strength: 1.2
S. haemolyticus 114126; dose 0.175% w/v, read-out: Log reduction
  log reduction at 0.175 % strength: 3.2
S. haemolyticus 114126; dose 0.2% w/v
  log reduction at 0.2 % strength: 4.5
C. xerosis ATCC 373; dose 0.1% w/v
  log reduction at 0.1 % strength: 0.1
C. xerosis ATCC 373; dose 0.15% w/v
  log reduction at 0.15 % strength: 2.2
C. xerosis ATCC 373; dose 0.2% w/v, read-out: Log reduction
  log reduction at 0.2 % strength: 4.6
C. xerosis ATCC 373; dose 0.25% w/v, read-out: Log reduction
  log reduction at 0.25 % strength: 5.4
C. xerosis ATCC 373; dose 0.3% w/v, read-out: Log reduction
  log reduction at 0.3 % strength: 6.1
